# Measured values taken from patent US20200323849A1, “COMBINATIONS OF HISTONE DEACETYLASE INHIBITORS AND IMMUNOMODULATORY DRUGS” (Acetylon Pharmaceuticals, Inc., priority 2013, published 2020).
# Assays:
# [1] = tested on: acetylated tubulin (a marker of HDAC6 inhibition); experiment: Phase 1b PD: acetylated tubulin in PBMC; type: in vivo, human; conditions: at ≥80 mg Compound A
# Method: (§4) In Part A of the trial, patients were treated with escalating doses of oral Compound A in combination with a standard dose and schedule of lenalidomide and dexamethasone on days 1-5 and 8-12 of a 28 day cycle. For example, the patients in cohort 1 received 40 mg of Compound A, 15 mg of Compound E, and 40 mg of dexamethasone per day; the patients in cohort 2 received 40 mg of Compound A, 25 mg of Compound E, and 40 mg of dexamethasone per day; the patients in cohort 3 received 80 mg of Compound A, 25 mg of Compound E, and 40 mg of dexamethasone per day; the patients in cohort 4 received 160 mg of Compound A, 25 mg of Compound E, and 40 mg of dexamethasone per day; and the patients in cohort 5 received 240 mg of Compound A, 25 mg of Compound E, and 40 mg of dexamethasone per day. […] For example, the patients in cohort 6 received 160 mg of Compound A, 25 mg of Compound E, and 40 mg of dexamethasone per day; the patients in cohort 7 received 160 mg of Compound A, 25 mg of Compound E, and 40 mg of dexamethasone twice daily; and the patients in cohort 8 received 240 mg of Compound A, 25 mg of Compound E, and 40 mg of dexamethasone twice daily. Peripheral blood samples were obtained for PK and PD analysis at specified time points.
# [2] = tested on: acetylated histones (a marker of class 1 HDAC inhibition); experiment: Phase 1b PD: acetylated histones in PBMC; type: in vivo, human; conditions: at ≥80 mg Compound A
# Method: as §4
# [3] = tested on: H929 myeloma cells; experiment: Cell cycle distribution by flow cytometry, propidium iodide (H929); type: cell-based; conditions: H929, 3 and 5 days; Compound A 2 μM, Lenalidomide 2 μM, Pomalidomide 1 μM
# Method: (§1) H929 (FIGS. 10A & 10B) or MM.1s (FIGS. 10C & 10D) myeloma cells were exposed to drug for 3 (FIGS. 10A & 10C) and 5 (FIGS. 10B & 10D) days and cell cycle distribution was assessed by flow cytometry via incorporation of propidium iodide. The relative fraction of cells in each stage of the cell cycle (GO/G1, S, and G2/M) as well as the fraction of dead cells (Sub G1) was then estimated.
# [4] = tested on: MM.1s myeloma cells; experiment: Cell cycle distribution by flow cytometry, propidium iodide (MM.1s); type: cell-based; conditions: 3 and 5 days, Compound A 2 μM, Lenalidomide 2 μM, Pomalidomide 1 μM
# Method: as §1
# [5] = tested on: H929 myeloma cells; experiment: Apoptosis by flow cytometry, Annexin V / propidium iodide (H929); type: cell-based; conditions: H929, 5 and 7 days; Compound A 2 μM, Lenalidomide 2 μM, Pomalidomide 1 μM
# Method: (§2) H929 (FIGS. 11A & 11B) or MM.1s (FIGS. 11C & 11D) myeloma cells were exposed to drug for 5 (FIGS. 11A & 11C) and 7 (FIGS. 11B & 11D) days, and apoptosis was assessed by flow cytometry by measuring Annexin V binding and cellular permeability to propidium iodide. The relative fraction of cells that were live, in early apoptosis, in late apoptosis, or dead was then determined.
# [6] = tested on: MM.1s myeloma cells; experiment: Apoptosis by flow cytometry, Annexin V / propidium iodide (MM.1s); type: cell-based; conditions: 5 and 7 days, Compound A 2 μM, Lenalidomide 2 μM, Pomalidomide 1 μM
# Method: as §2
# [7] = tested on: H929 cells; experiment: Immunoblot in H929 cells; type: cell-based
# [8] = human, in vivo
# Method: as §4
# [9] = Compound A monotherapy clinical trial (phase 1a)
# Method: as §4
# [10] = Phase 1b clinical trial: PK in peripheral blood samples
# Method: as §4
# [11] = tested on: HDAC1, 2, and 3; experiment: HDAC enzyme assays (HDAC1, 2, 3); type: biochemical
# Method: (§3) Compounds for testing were diluted in DMSO to 50 fold the final concentration and a ten point three fold dilution series was made. The compounds were diluted in assay buffer (50 mM HEPES, pH 7.4, 100 mM KCl, 0.001% Tween-20, 0.05% BSA, 20 μM TCEP) to 6 fold their final concentration. The HDAC enzymes (purchased from BPS Biosciences) were diluted to 1.5 fold their final concentration in assay buffer. The tripeptide substrate and trypsin at 0.05 μM final concentration were diluted in assay buffer at 6 fold their final concentration. The final enzyme concentrations used in these assays were 3.3 ng/ml (HDAC1), 0.2 ng/ml (HDAC2), 0.08 ng/ml (HDAC3) and 2 ng/ml (HDAC6). The final substrate concentrations used were 16 μM (HDAC1), 10 μM (HDAC2), 17 μM (HDAC3) and 14 μM (HDAC6). Five μl of compound and 20 μl of enzyme were added to wells of a black, opaque 384 well plate in duplicate. Enzyme and compound were incubated together at room temperature for 10 minutes. Five μl of substrate was added to each well, the plate was shaken for 60 seconds and placed into a Victor 2 microtiter plate reader. The development of fluorescence was monitored for 60 min and the linear rate of the reaction was calculated. The IC50 was determined using Graph Pad Prism by a four parameter curve fit.
# [12] = molecular target: T1, HDAC6 (Homo sapiens, UniProt Q9UBN7); experiment: HDAC enzyme assays (HDAC6 selectivity); type: biochemical
# T1 construct: purchased BPS Biosciences
# T1 sequence (Q9UBN7 1-1215): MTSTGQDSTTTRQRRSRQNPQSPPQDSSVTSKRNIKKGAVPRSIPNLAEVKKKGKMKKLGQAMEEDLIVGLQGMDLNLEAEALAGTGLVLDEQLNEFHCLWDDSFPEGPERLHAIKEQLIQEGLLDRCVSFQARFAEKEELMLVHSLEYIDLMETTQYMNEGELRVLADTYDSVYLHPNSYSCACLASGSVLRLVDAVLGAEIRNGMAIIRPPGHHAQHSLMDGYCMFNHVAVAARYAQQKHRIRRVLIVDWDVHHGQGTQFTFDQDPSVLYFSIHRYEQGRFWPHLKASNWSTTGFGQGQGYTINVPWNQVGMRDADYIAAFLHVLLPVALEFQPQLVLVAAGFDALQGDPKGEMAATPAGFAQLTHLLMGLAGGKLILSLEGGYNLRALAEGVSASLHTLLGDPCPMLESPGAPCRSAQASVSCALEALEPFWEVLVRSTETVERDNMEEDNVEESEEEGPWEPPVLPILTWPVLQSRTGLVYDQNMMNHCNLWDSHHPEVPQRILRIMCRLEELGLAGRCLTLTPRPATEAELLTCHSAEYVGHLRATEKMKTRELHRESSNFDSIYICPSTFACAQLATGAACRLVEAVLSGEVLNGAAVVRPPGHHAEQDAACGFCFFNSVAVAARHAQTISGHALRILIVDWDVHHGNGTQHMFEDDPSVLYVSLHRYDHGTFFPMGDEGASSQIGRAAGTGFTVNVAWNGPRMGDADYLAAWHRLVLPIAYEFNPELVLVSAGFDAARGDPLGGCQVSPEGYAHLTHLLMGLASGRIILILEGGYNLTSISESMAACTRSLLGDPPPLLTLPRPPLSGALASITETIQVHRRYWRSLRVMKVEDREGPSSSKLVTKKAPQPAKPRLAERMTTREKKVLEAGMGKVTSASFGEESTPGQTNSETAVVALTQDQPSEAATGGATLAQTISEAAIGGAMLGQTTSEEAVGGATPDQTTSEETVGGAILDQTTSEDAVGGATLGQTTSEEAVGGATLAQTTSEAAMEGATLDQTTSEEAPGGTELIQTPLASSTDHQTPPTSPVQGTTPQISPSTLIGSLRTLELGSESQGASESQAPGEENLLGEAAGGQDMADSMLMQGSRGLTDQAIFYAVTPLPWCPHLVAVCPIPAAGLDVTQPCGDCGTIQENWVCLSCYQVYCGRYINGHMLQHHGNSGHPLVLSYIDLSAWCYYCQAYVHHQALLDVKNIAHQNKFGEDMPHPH
# Method: as §3, with “Five μl of compound and 20 μl of enzyme were added to wells of a black, opaque 384 well plate in duplicate.” left out
structure (smiles),measurement,setting,value
"O=C(CCCCCCNC(=O)c1cnc(N(c2ccccc2)c2ccccc2)nc1)NO [Compound A, 2-(diphenylamino)-N-(7-(hydroxyamino)-7-oxoheptyl) pyrimidine-5-carboxamide]",increase in acetylated tubulin,[1],> 2 ×
same,increase in acetylated histones,[2],minimal increase
same,"cell cycle distribution (G0/G1, S, G2/M)",[3],small reduction
same,"cell cycle distribution (G0/G1, S, G2/M)",[4],small reduction
same,percentage of apoptotic cells,[5],small increase in apoptosis
same,percentage of apoptotic cells,[6],small increase in apoptosis
same,acetylation of α-tubulin (inhibition of HDAC6),[7],hyperacetylation
same,dose limiting toxicities (DLTs),[8],not observed
same,dose well-tolerated as a monotherapy (maximum dose examined),[9],up to 360 mg/day
same,Maximal levels of Compound A,"[10]; at ≥80 mg, coadministered with lenalidomide and dexamethasone",≥ 1 µM
same,PK for Compound A versus analogous dose levels in phase 1a monotherapy,[10]; coadministration of lenalidomide,similar
"O=C(CCCCCCNC(=O)c1cnc(N(c2ccccc2)c2ccccc2Cl)nc1)NO [Compound B, 2-((2-chlorophenyl)(phenyl)amino)-N-(7-(hydroxyamino)-7-oxoheptyl)pyrimidine-5-carboxamide]","inhibition of HDAC1, 2, and 3",[11],low level inhibition
"O=C(NO)c1cnc(NC2(c3cccc(F)c3)CCCCC2)nc1 [Compound C, 2-((1-(3-fluorophenyl)cyclohexyl)amino)-N-hydroxypyrimidine-5-carboxamide]",selective for HDAC6 over class I HDAC's,[12],more than 300 fold
